Measurements: doi:10.1101/208439v1 (biorxiv, 2017)
Read-outs that look alike come from different tables or passages of the source.

How the values were obtained:
[1] = biological target: T1, DNMT3b (Homo sapiens, UniProt Q9UBC3); experiment: HotSpot [3H]SAM filter-binding methyltransferase assay; type: biochemical
T1 construct: residues 2-853, N-terminal GST fusion, insect cell/baculovirus

[2] = biological target: MLL4 Complex (Homo sapiens, UniProt Q9UMN6); experiment: as above; type: biochemical; design: gene KMT2B; complex assembled as MLL1; MLL4 here is KMT2B (NM_014727), His tag, E. coli; with WD repeat-containing protein 5; Set1/Ash2 histone methyltransferase complex subunit ASH2; Protein dpy-30 homolog
[3] = biological target: T2, NSD2 SET domain (Homo sapiens, UniProt O96028); experiment: biochemical; design: Surface plasmon resonance binding to NSD2 SET domain; conditions: binder
T2 construct: SET domain, residues 934-1241, N-terminal His tag, E. coli
T2 sequence (O96028 934-1241): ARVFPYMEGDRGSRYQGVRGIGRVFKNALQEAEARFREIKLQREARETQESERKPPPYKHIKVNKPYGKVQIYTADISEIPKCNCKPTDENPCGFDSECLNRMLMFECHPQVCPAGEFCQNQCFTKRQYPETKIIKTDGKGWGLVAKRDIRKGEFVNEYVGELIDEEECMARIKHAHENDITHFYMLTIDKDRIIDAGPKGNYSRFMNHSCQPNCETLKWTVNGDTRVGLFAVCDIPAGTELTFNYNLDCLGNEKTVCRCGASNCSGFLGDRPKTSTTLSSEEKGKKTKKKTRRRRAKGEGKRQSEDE
Protocol: To support an on-target mechanism of action for the five inhibitors, surface plasmon resonance (SPR) was used to determine whether each inhibitor interacts with the catalytic SET domain of NSD2. […] Chaetocin bound the SET domain with an apparent dissociation constant of 20 nM. Additionally, the data indicated super-stoichiometric binding, which might be due to a binding ratio higher than 1:1 that is consistent with chaetocin’s two disulfide moieties forming adducts with the NSD2 protein, or compound aggregation (data not shown) ([56]).

[4] = biological target: PRMT3 (Homo sapiens, UniProt O60678); experiment: HotSpot [3H]SAM filter-binding methyltransferase assay; type: biochemical; design: residues 2-531, N-terminal His tag, E. coli
[5] = biological target: T3, PRMT1 (Homo sapiens, UniProt Q99873); experiment: as above; type: biochemical
T3 construct: residues 2-371, N-terminal GST fusion, E. coli

[6] = biological target: T4, DOT1L (Homo sapiens, UniProt Q8TEK3); experiment: as above; type: biochemical
T4 construct: residues 1-416, N-terminal GST fusion, E. coli

[7] = biological target: PRMT5 (Homo sapiens, UniProt O14744); experiment: biochemical
[8] = biological target: DNMT3b/3L (Homo sapiens, UniProt Q9UBC3); experiment: biochemical
[9] = read-out: DA3003-1 IC50, inhibitor
[10] = nucleosomes, […] SAM, pH […] MgCl2, […] DTT, […] °C, single experiment
[11] = histone H4, […] SAM, pH […] MgCl2, […] DTT, […] °C, single experiment

Chain of PRMT5 (O14744 whole entry): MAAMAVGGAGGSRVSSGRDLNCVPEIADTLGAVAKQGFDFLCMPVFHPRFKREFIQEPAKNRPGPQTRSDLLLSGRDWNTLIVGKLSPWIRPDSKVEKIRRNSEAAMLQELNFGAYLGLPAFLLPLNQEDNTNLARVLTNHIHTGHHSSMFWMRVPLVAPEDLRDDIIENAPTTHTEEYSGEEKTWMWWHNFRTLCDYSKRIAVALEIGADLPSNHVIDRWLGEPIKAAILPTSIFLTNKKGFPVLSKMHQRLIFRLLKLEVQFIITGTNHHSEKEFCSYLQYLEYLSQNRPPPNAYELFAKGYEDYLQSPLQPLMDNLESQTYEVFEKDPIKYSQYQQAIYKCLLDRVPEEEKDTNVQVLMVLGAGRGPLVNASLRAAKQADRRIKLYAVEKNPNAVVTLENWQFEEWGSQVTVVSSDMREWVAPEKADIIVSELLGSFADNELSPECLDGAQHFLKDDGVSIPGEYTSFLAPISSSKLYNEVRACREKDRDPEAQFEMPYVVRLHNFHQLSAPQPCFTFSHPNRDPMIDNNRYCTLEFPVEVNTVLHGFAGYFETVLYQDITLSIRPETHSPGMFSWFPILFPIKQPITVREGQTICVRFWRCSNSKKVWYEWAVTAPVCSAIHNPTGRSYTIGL
Chain of PRMT3 (O60678 2-531): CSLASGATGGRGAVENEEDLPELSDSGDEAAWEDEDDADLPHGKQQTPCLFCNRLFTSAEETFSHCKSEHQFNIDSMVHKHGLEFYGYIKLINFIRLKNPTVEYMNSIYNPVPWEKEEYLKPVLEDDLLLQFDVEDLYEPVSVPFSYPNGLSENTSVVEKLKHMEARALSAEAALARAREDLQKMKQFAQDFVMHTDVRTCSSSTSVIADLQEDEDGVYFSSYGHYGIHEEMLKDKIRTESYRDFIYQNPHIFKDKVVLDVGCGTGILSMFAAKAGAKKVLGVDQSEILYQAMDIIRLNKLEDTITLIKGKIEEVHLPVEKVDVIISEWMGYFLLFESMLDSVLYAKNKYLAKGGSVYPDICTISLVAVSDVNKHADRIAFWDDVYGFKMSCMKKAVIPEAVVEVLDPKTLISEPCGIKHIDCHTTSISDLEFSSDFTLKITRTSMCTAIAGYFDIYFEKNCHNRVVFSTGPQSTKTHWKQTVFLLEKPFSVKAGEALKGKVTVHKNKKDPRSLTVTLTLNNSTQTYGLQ
Chain of MLL4 Complex (Q9C005 whole entry, the tested form may be a part): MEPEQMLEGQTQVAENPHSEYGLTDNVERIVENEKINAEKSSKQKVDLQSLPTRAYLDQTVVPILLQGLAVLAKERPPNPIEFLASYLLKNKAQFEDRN
Chain of MLL4 Complex (Q9UBL3 96-628, further chain): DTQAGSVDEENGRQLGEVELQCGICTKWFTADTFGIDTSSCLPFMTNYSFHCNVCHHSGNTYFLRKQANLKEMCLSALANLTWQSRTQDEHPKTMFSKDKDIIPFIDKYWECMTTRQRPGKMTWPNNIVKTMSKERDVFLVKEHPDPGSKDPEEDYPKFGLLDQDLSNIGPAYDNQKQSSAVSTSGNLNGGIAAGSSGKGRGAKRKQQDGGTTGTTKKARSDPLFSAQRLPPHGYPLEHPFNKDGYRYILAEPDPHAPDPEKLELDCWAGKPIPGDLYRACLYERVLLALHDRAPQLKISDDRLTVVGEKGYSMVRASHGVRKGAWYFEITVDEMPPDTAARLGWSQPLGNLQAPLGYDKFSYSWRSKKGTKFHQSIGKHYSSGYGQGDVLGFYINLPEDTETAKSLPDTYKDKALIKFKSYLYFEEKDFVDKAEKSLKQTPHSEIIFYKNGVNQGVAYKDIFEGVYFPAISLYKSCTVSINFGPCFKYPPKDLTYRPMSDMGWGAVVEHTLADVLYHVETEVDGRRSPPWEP
Chain of MLL4 Complex (Q15291 whole entry, further chain, the tested form may be a part): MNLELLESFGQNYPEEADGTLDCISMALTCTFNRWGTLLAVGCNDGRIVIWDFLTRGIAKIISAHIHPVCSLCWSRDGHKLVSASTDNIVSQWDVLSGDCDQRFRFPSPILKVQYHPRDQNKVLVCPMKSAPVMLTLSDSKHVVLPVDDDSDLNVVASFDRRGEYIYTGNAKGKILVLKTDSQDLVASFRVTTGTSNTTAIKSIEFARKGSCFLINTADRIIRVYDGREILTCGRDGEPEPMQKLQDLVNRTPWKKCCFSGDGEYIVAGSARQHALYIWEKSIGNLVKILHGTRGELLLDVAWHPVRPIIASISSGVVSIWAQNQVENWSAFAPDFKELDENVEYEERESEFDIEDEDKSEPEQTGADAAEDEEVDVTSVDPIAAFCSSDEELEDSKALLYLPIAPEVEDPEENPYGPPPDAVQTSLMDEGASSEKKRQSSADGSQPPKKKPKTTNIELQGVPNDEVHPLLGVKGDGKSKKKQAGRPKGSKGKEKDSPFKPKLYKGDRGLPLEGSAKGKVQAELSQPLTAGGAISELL
Chain of MLL4 Complex (Q9UMN6 2490-2715): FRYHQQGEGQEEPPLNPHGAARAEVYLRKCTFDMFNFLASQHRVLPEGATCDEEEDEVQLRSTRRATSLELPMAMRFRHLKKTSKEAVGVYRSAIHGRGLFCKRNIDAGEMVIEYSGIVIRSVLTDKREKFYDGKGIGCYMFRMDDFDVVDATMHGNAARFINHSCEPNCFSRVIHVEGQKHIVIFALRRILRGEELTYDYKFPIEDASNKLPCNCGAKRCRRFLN
T3 sequence (Q99873 2-353 isoform Q99873-3): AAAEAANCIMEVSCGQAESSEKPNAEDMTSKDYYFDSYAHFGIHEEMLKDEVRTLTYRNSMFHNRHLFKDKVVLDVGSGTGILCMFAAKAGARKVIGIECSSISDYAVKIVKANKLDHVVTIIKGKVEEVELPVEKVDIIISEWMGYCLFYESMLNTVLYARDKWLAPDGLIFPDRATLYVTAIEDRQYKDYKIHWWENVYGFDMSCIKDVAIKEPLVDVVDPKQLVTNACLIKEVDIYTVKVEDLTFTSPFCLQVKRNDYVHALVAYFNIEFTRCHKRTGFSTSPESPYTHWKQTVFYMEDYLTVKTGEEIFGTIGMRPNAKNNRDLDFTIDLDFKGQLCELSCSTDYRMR
T4 sequence (Q8TEK3 1-416): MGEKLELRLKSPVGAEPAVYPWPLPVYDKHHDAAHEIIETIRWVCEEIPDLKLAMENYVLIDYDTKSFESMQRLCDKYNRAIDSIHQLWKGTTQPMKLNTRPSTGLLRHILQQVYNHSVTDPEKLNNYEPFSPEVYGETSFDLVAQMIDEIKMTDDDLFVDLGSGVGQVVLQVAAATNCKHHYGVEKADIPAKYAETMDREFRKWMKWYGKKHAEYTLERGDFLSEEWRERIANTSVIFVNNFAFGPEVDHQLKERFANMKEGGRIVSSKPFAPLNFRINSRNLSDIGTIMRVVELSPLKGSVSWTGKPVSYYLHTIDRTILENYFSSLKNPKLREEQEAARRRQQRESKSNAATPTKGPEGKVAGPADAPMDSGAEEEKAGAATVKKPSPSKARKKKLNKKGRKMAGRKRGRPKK

Structure (SMILES): CC1(C)CCC(CN2CCN(c3ccc(C(=O)NS(=O)(=O)c4ccc(NCC5CCOCC5)c([N+](=O)[O-])c4)c(Oc4cnc5[nH]ccc5c4)c3)CC2)=C(c2ccc(Cl)cc2)C1 [ABT-199]
- IC50 [1]: > 100 µM
- IC50 [2]: 0.52 µM
- koff [3]: 0.0364 s⁻¹
- kon [3]: 4390 M⁻¹ s⁻¹
- IC50 [4]: 36 µM
- IC50 [5]: 83 µM
- IC50 [6]: 2 µM

Structure (SMILES): O=C1C(Cl)=C(NCCN2CCOCC2)C(=O)c2ncccc21 [DA3003-1]
- IC50 [7, 9]: 0.65 µM
- Kd [3]: 0.37 µM
- IC50 [8, 9]: 0.72 µM

Structure (SMILES): COc1cccc(-n2nc(C(=O)O)cc2-c2ccc(C3CCCCC3)c(Cl)c2)c1 [TC LPA5 4]
- IC50 ([1]; lambda DNA, […] SAM, pH […] EDTA, […] DTT, […] °C, single experiment): 24 µM
- IC50 [2, 10]: 1 µM
- IC50 [7]: 17 µM
- IC50 [4, 11]: 5.7 µM
- IC50 [5, 11]: 68 µM
- IC50 [8]: 30 µM
- IC50 [6, 10]: 8.2 µM
